Reference: PubChem BioAssay AID2060612 (Molecular Pharmacology Branch, DTP, NCI, 2025)
Values joined by “and” are separate entries in the source; they are usually repeats but may differ in a detail not shown here. Equal entries are not always repeated.

Tested on: 565232-114-T-J1-PDC complex spheroid viability
Assay: Anticancer human tumor 565232-114-T-J1-PDC patient-derived bladder carcinoma cell line growth inhibition [CLK]
Details: for viability, T/C: stronger effect = lower value
Summary of the method: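 Multi-cell-type spheroids combined patient-derived tumor cells with HUVEC endothelial cells and human mesenchymal stem cells. Paired agents were dosed in half-log steps down from about clinical Cmax, or from 10 microM where Cmax was unknown.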

[1] = curve of first compound, second compound 0.0316 µM
[2] = curve of first compound, second compound 0.1 µM
[3] = curve of first compound, second compound 0.316 µM
[4] = curve of first compound, second compound 1 µM
[5] = curve of first compound, second compound 3.16 µM
[6] = curve of first compound, second compound 10 µM
[7] = second compound 0.0316 µM, first compound 0.0316 µM
[8] = second compound 0.0316 µM, first compound 0.1 µM
[9] = second compound 0.0316 µM, first compound 0.316 µM
[10] = second compound 0.0316 µM, first compound 1 µM
[11] = second compound 0.0316 µM, first compound 3.16 µM
[12] = second compound 0.0316 µM, first compound 10 µM
[13] = second compound 0.1 µM, first compound 0.0316 µM
[14] = second compound 0.1 µM, first compound 0.1 µM
[15] = second compound 0.1 µM, first compound 0.316 µM
[16] = second compound 0.1 µM, first compound 1 µM
[17] = second compound 0.1 µM, first compound 3.16 µM
[18] = second compound 0.1 µM, first compound 10 µM
[19] = second compound 0.316 µM, first compound 0.0316 µM
[20] = second compound 0.316 µM, first compound 0.1 µM
[21] = second compound 0.316 µM, first compound 0.316 µM
[22] = second compound 0.316 µM, first compound 1 µM
[23] = second compound 0.316 µM, first compound 3.16 µM
[24] = second compound 0.316 µM, first compound 10 µM
[25] = second compound 1 µM, first compound 0.0316 µM
[26] = second compound 1 µM, first compound 0.1 µM
[27] = second compound 1 µM, first compound 0.316 µM
[28] = second compound 1 µM, first compound 1 µM
[29] = second compound 1 µM, first compound 3.16 µM
[30] = second compound 1 µM, first compound 10 µM
[31] = second compound 3.16 µM, first compound 0.0316 µM
[32] = second compound 3.16 µM, first compound 0.1 µM
[33] = second compound 3.16 µM, first compound 0.316 µM
[34] = second compound 3.16 µM, first compound 1 µM
[35] = second compound 3.16 µM, first compound 3.16 µM
[36] = second compound 3.16 µM, first compound 10 µM
[37] = second compound 10 µM, first compound 0.0316 µM
[38] = second compound 10 µM, first compound 0.1 µM
[39] = second compound 10 µM, first compound 0.316 µM
[40] = second compound 10 µM, first compound 1 µM
[41] = second compound 10 µM, first compound 3.16 µM
[42] = second compound 10 µM, first compound 10 µM
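Further: spheroids exposed to compounds for 7 days before readout.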
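Wherever viability, T/C is given: 100% = DMSO vehicle wells with luminescence normalized to vehicle control.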

SMILES: Nc1ccn(C2OC(CO)C(O)C2(F)F)c(=O)n1 (stereo unspecified) + CN1CCN(c2cc(C(=O)Nc3cc4cc(-c5cnn(C)c5)ccc4cn3)ccn2)CC1
- IC50 [1]: 192 nM
- IC50 [2]: 242 nM
- IC50 [3]: < 31.6 nM
- IC50 [4]: < 31.6 nM
- IC50 [5]: < 31.6 nM
- IC50 [6]: < 31.6 nM
- viability, T/C [7]: 93.3%
- viability, T/C [8]: 62.8%
- viability, T/C [9]: 40.7%
- viability, T/C [10]: 33.8%
- viability, T/C [11]: 38%
- viability, T/C [12]: 38.3%
- viability, T/C [13]: 112%
- viability, T/C [14]: 74.6%
- viability, T/C [15]: 42.3%
- viability, T/C [16]: 32.8%
- viability, T/C [17]: 30.2%
- viability, T/C [18]: 29.7%
- viability, T/C [19]: 18%
- viability, T/C [20]: 21.2%
- viability, T/C [21]: 20.4%
- viability, T/C [22]: 19%
- viability, T/C [23]: 16.7%
- viability, T/C [24]: 17.5%
- viability, T/C [25]: 0.16%
- viability, T/C [26]: 0.19%
- viability, T/C [27]: 0.2%
- viability, T/C [28]: 0.11%
- viability, T/C [29]: 1.16%
- viability, T/C [30]: 1.27%
- viability, T/C [31]: 0.18%
- viability, T/C [32]: 2.52%
- viability, T/C [33]: 0.18%
- viability, T/C [34]: 0.15%
- viability, T/C [35]: 0.92%
- viability, T/C [36]: 1.45%
- viability, T/C [37]: 0.18%
- viability, T/C [38]: 1.54%
- viability, T/C [39]: 0.18%
- viability, T/C [40]: 0.17%
- viability, T/C [41]: 2.1%
- viability, T/C [42]: 4.24%

SMILES: CC(=O)O[C@H]1C(=O)[C@@]2(C)[C@H]([C@H](OC(=O)c3ccccc3)[C@]3(O)C[C@H](OC(=O)[C@H](O)[C@@H](NC(=O)c4ccccc4)c4ccccc4)C(C)=C1C3(C)C)[C@]1(OC(C)=O)CO[C@@H]1C[C@@H]2O + CN1CCN(c2cc(C(=O)Nc3cc4cc(-c5cnn(C)c5)ccc4cn3)ccn2)CC1
- IC50 [1]: < 31.6 nM
- IC50 [2]: < 31.6 nM
- IC50 [3]: < 31.6 nM
- IC50 [4]: < 31.6 nM
- IC50 [5]: < 31.6 nM
- IC50 [6]: < 31.6 nM
- viability, T/C [7]: 33.2%
- viability, T/C [8]: 17.3%
- viability, T/C [9]: 18.3%
- viability, T/C [10]: 16.5%
- viability, T/C [11]: 21.1%
- viability, T/C [12]: 20.4%
- viability, T/C [13]: 25.3%
- viability, T/C [14]: 23.1%
- viability, T/C [15]: 20.2%
- viability, T/C [16]: 16.3%
- viability, T/C [17]: 17%
- viability, T/C [18]: 22.6%
- viability, T/C [19]: 7.34%
- viability, T/C [20]: 11.6%
- viability, T/C [21]: 13.5%
- viability, T/C [22]: 12.6%
- viability, T/C [23]: 13.7%
- viability, T/C [24]: 14.9%
- viability, T/C [25]: 1.4%
- viability, T/C [26]: 0.18%
- viability, T/C [27]: 0.18%
- viability, T/C [28]: 0.13%
- viability, T/C [29]: 0.16%
- viability, T/C [30]: 0.95%
- viability, T/C [31]: 0.15%
- viability, T/C [32]: 0.19%
- viability, T/C [33]: 0.17%
- viability, T/C [34]: 1.81%
- viability, T/C [35]: 0.95%
- viability, T/C [36]: 3.05%
- viability, T/C [37]: 0.18%
- viability, T/C [38]: 0.55%
- viability, T/C [39]: 2.34%
- viability, T/C [40]: 0.22%
- viability, T/C [41]: 1.4%
- viability, T/C [42]: 0.16%

SMILES: CC(=O)O[C@H]1C(=O)[C@@]2(C)[C@H]([C@H](OC(=O)c3ccccc3)[C@]3(O)C[C@H](OC(=O)[C@H](O)[C@@H](NC(=O)c4ccccc4)c4ccccc4)C(C)=C1C3(C)C)[C@]1(OC(C)=O)CO[C@@H]1C[C@@H]2O
- viability, T/C (compound 0.0316 µM): 39.2% and 16.7%
- viability, T/C (compound 0.1 µM): 20.1% and 11.8%
- viability, T/C (compound 0.316 µM): 19.2% and 10.8%
- viability, T/C (compound 1 µM): 15.5% and 6.12%
- viability, T/C (compound 3.16 µM): 20% and 10.1%
- viability, T/C (compound 10 µM): 23.2% and 10.5%
- IC50 (curve of compound): < 31.6 nM
